Reference: ChEMBL document CHEMBL1201862, “PubChem BioAssay data set” (2004)
The source made the active and inactive calls. Cut-off read from the data, not from the text of the source: actives have a measured EC50 and inactives only a lower limit.

Assays:
[1] = molecular target: T1, Corticotropin-releasing factor receptor 2/Corticotropin-releasing factor-binding protein (Homo sapiens, UniProt P24387+Q13324); test: activators of CRF receptor 2 with binding protein – uHTS hits, confirmation (AID 602473); assay type: functional; settings: read-out: EC50_Mean
T1 sequence (Q13324 whole entry): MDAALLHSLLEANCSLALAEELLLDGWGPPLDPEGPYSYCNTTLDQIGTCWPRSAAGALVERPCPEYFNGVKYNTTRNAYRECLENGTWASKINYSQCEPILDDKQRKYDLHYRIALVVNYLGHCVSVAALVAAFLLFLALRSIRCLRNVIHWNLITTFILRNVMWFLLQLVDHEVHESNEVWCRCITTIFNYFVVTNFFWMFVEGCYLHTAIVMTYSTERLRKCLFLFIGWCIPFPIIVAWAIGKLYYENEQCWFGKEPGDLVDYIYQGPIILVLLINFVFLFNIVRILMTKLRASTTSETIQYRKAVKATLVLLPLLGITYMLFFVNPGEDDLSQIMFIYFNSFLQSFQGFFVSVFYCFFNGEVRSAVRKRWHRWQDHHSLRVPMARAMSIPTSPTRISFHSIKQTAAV
T1 sequence (P24387 whole entry): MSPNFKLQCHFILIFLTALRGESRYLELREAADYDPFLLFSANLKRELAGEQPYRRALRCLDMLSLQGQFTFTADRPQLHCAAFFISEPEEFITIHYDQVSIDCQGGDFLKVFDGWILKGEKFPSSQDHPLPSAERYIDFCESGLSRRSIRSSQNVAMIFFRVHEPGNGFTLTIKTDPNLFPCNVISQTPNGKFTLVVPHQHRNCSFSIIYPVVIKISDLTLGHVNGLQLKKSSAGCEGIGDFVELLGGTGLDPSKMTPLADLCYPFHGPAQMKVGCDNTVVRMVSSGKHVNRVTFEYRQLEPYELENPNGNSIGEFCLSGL

[2] = Luminescence Cell-Based Dose Response HTS to Identify Activators of Luciferase Translation or Activity in H4 […] Cells. [Related pubchem assays: 1829 (Project Summary), 1814 (Primary HTS)]; assay type: functional
[3] = Luminescence Cell-Based Dose Confirmation HTS to Identify Activators of 5'UTR Stem-Loop Driven Alpha-Synuclein mRNA Translation in H4 Neuroglioblastoma Cells. [Related pubchem assays: 1829 (Project Summary), 1814 (Primary HTS)]; assay type: functional
H4 = test: Luminescence Cell-Based Dose Response HTS to Identify Activators of 5'UTR Stem-Loop Driven Prion Protein mRNA Translation in H4 Neuroglioblastoma Cells. [Related pubchem assays: 1829 (Project Summary), 1814 (Primary HTS)]; assay type: functional; settings: Homo sapiens
[4] = molecular target: T2, Heat shock factor protein 1 (Mus musculus, UniProt P38532); test: enhancement of HSF1-driven luciferase signal – cell-based, NIH3T3, luminescence, dose retest, confirmation (AID 435004); assay type: functional;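 note: stress induced by proteasome inhibitor MG132 added 30 min after compound; luciferase reporter driven by HSF1 response element in NIH3T3 cells; actives raise luminescence as potentiators of the MG132 stress response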
T2 sequence (P38532 whole entry): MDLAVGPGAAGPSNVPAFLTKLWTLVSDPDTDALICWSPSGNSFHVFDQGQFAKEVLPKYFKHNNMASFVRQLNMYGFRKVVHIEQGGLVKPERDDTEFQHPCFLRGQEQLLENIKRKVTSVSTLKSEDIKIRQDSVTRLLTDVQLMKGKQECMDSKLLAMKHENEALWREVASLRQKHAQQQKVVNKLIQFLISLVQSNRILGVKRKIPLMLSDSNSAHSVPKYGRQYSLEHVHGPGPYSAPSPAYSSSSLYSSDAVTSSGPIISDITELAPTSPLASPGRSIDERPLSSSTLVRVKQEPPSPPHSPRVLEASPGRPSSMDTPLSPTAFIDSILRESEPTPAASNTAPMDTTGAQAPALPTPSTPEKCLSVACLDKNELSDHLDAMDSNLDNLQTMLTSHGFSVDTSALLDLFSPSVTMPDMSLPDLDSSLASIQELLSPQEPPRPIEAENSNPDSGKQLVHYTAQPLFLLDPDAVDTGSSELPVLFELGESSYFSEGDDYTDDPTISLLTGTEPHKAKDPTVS

Streptococcus = test: GAS UMAA2166 growth inhibition – luminescence, BacTiterGlo, counter-screen for streptokinase expression inhibitor project, dose response (AID 1915); assay type: functional, organism-based;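 note: potency for reduction of bacterial viability or growth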
[5] = system: Streptococcus sp. 'group A'; test: Streptococcus pyogenes SK(-)GAS viability under kanamycin – luminescence, BacTiterGlo, confirmation, counter-screen for streptokinase expression inhibitor project, dose response (AID 1900); assay type: functional, organism-based

In the case of `O=C(NCc1cccc(Cl)c1)c1cccc(S(=O)(=O)N2CCCC2)c1`, the EC50 [1] is reported as > 53 µM (inactive).
In the case of `CCn1c(Cn2nnc(-c3ccccc3)n2)nnc1SCC(=O)Nc1ccc(C(C)=O)cc1`, the EC50 [2] is reported as 71.4 µM (active), the EC50 [3] is reported as > 120 µM (not active) and the EC50 (H4) is reported as 16.1 µM (active).
With `O=S(=O)(c1ccc(Cl)cc1)N1CCC2(CC1)OCCN2S(=O)(=O)c1cccs1` the EC50 [4] was 227 µM (active).
With `Cc1nn(-c2ccc(Cl)cc2)c(O)c1/C=N/n1c(C)nc2ccccc2c1=O` the EC50 (Streptococcus) was 7.22 µM (active) and the EC50 [5] was 3.48 µM (active).
For `COc1ccc(CN(C)Cc2c(O)ccc3ccccc23)cc1`, the EC50 [4] was 38.8 µM (active).
In the case of `CC(=O)N1CCc2cc(S(=O)(=O)NCCC(=O)Nc3ccc4c(c3)OCCO4)ccc21`, the EC50 [2] is reported as 9.85 µM (active), the EC50 [3] is reported as 17.4 µM (active) and the EC50 (H4) is reported as 25.6 µM (active).
In the case of `CCOc1ccc(-n2c(=S)sc3c(O)nc(SCC(=O)NC(C)CC)nc32)cc1` (stereo not given), the EC50 [4] is reported as > 260 µM (inactive).
With `N=C(NOC(=O)/C=C/c1ccccc1Cl)c1cccnc1` the EC50 (H4) was 22.8 µM (active).
For `CCOC(=O)c1ccc(NC(=O)CCS(=O)(=O)c2ccc(Br)s2)cc1`, the EC50 [4] was > 260 µM (inactive).
In the case of `O=C(COC(=O)[C@H](Cc1ccccc1)NC(=O)c1ccco1)NCc1ccccc1`, the EC50 [1] is reported as 10.4 µM (active).
In the case of `CC1=NC(=O)C(N=Nc2cccc(O)c2)N1c1ccccc1` (stereo not given), the EC50 [2] is reported as 13.7 µM (active), the EC50 [3] is reported as 15.5 µM (active) and the EC50 (H4) is reported as 20.2 µM (active).
For `COC(=O)C1=CN(c2ccc(F)cc2)C=C(C(=O)OC)C1c1cccc(Br)c1`, the EC50 [4] was > 260 µM (inactive).
With `Cc1nc2c(c(=O)c3ccccc3n2C)c(=O)n1C1CCCCCC1` the EC50 [1] was 9.6 µM (active).
In the case of `Clc1ccc2c(c1)[C@H]1OCC[C@H]1[C@@H](c1ccco1)N2`, the EC50 [2] is reported as 10.9 µM (active), the EC50 [3] is reported as 19.9 µM (active) and the EC50 (H4) is reported as 9.48 µM (active).
With `Cc1nc(C(=N)NOC(=O)Cc2ccccc2)no1` the EC50 [4] was > 260 µM (inactive).
For `CCOc1ccc(N2C(=O)C(Cl)=C(Nc3ccccc3O)C2=O)cc1`, the EC50 [2] was > 120 µM (not active) and the EC50 (H4) was 0.107 µM (active).
In the case of `Cn1ncc2c(Nc3ccc(Br)cc3)nc(Nc3ccc(Br)cc3)nc21`, the EC50 (Streptococcus) is reported as 2.38 µM (active) and the EC50 [5] is reported as 1.01 µM (active).
For `Cc1cccn2c(=O)c3cc(C#N)/c(=N\C(=O)c4cccnc4)n(CC4CCCO4)c3nc12` (stereo not given), the EC50 [1] was > 53 µM (inactive).
In the case of `C=CCSC1=C(C#N)C(c2cccc(OC)c2)CC(=O)N1` (stereo not given), the EC50 [4] is reported as > 260 µM (inactive).
In the case of `Nn1c(SCC(=O)N2CCOCC2)nnc1C1CC1`, the EC50 [4] is reported as > 260 µM (inactive).
For `Cc1cccc(CCNc2nc3ccc(C)cc3n3cnnc23)c1`, the EC50 [2] was 33.2 µM (active), the EC50 [3] was 0.258 µM (active) and the EC50 (H4) was 7.16 µM (active).
With `O=c1[nH]c2ccccc2c2cn(-c3ccccc3)nc12` the EC50 [4] was 126 µM (active).
With `O=C(NN=C1C2CC3CC1CC(Cl)(C3)C2)c1ccccn1` the EC50 [2] was > 120 µM (not active), the EC50 [3] was > 120 µM (not active) and the EC50 (H4) was > 120 µM (not active).
In the case of `CC(=O)Nc1ccc(N2C(=O)C3C4CC(=O)C(c5ccccc54)C3C2=O)cc1` (stereo not given), the EC50 [4] is reported as > 260 µM (inactive).
With `CCn1c(SCC(=O)Nc2ccc(C(C)=O)cc2)nc2nc3c(cc2c1=O)COC(C)(C)C3` the EC50 [2] was 32.9 µM (active), the EC50 [3] was > 120 µM (not active) and the EC50 (H4) was 12.8 µM (active).
For `CCCSc1nnc2n(-c3ccccc3OC)c(=O)c3c4c(sc3n12)CCC4`, the EC50 [4] was > 260 µM (inactive).
For `Cc1cc(C)n(-c2nc3ccccc3nc2N2CCN(C(=O)c3ccc(F)cc3)CC2)n1`, the EC50 [4] was > 260 µM (inactive).
In the case of `CN=C(S)NCCC(c1ccccc1)c1ccccc1`, the EC50 [4] is reported as > 260 µM (inactive).
